Reference: patent US20180014536A1, “AGENT FOR IMPROVING PLANT GROWTH AND METHOD FOR PRODUCING PLANT USING SAME” (FUSO CHEMICAL CO., LTD., priority 2015, published 2018)
Values joined by “and” are separate entries in the source; they are usually repeats but may differ in a detail not shown here. Identical values can stand only once.

What was measured:
[1] = tested on: Japanese mustard spinach; test: Verification experiment 1: high temperature stress, hydroponics (first time); format: in vivo; details: first time
Protocol: In order to confirm that the above substances have an efficacy such as alleviation of the various stresses on a plant or promotion of plant growth, some verification experiments were conducted. In each of the verification experiments, solutions of the above substances were used. A concentration thereof was in a range from 0.01 ppm to 10 ppm, in order to exert a sufficient efficacy on a plant. This concentration was appropriately adjusted for each verification experiment. For comparison, similar verification experiments using sanguinarine were conducted. In such a verification experiment for an identical purpose to the above, a concentration of sanguinarine was set to be identical to those of the above substances. A verification experiment for high temperature stress was conducted by use of Japanese mustard spinach. The experiment was conducted in the following procedures. […] Note that the agent used was zerumbone.

[2] = tested on: cucumber; test: Verification experiment 3: high temperature stress, soil culture; format: in vivo; details: leaf spray on cotyledons, 10 days cultivation
Protocol: Next, an experiment was conducted to confirm effectiveness of the agent in soil culture of cucumber. First, seeds of cucumber were sown in culture soil thrown into 15 cm-pots (size-5 pots) such that the seeds have spaces therebetween. The culture soil contains, as fertilizer components, 180 mg/L of nitrogen, 120 mg/L of phosphoric acid, and 220 mg/L of potassium. The soil was adjusted at pH 6.0. Watering was performed every early morning. […] A growth difference was observed therebetween.

[3] = tested on: cucumber; test: Verification experiment 6: dry stress; format: in vivo
Protocol: By use of cucumber, a resistance to dry stress was investigated. 3 ml of Zerumbone was added to cucumber seedlings immediately after germination. The cucumber seedlings were cultivated for 18 days. Meanwhile, another cucumber seedlings were cultivated for 18 days without Zerumbone added thereto. Throughout the cultivation period, a minimum amount of water was given and watering was conducted a minimum number of times so that the soil surface was always kept dry. […] A weight of each of the seedlings was measured. […] Note that, except for the agent, the cultivation conditions used were identical to those of the case where zerumbone was used.

[4] = tested on: radish sprouts; test: Verification experiment 7: recovering from dry stress; format: in vivo; details: among the four samples; sprayed, dried one night, replanted
Description: Next, radish sprouts seedlings were dried so that the radish sprouts seedlings were severely damaged. Subsequently, adequate water was given to the radish sprouts seedlings. Thus, whether or not the radish sprouts seedlings could be recovered from the damage was verified. First, radish sprouts were immersed in water during night so that germination thereof was promoted. After germination, radish sprouts seedlings planted in vermiculite were impregnated in a nutrient fluid of the Ensi formulation. The radish sprouts seedlings were cultured at 25° C. for five days. A light period during the culture was six hours. Then, zerumbone was sprayed to the radish sprouts seedlings. Meanwhile, water was sprayed to samples used as a control. These radish sprouts seedlings were cultured for one more day. Thereafter, the roots thereof were washed so that the vermiculite was removed therefrom. Then, the roots were wiped with a paper towel. The radish sprouts seedlings were then arranged on a tray, and were dried for one night. The radish sprouts seedlings thus dried were planted in culture soil obtained by blending leaf soil and […] soil in a ratio of 4:6 in a pot.

[5] = tested on: cucumber; test: Verification experiment 8: low temperature stress, TTC test; format: in vivo
[6] = tested on: cucumber; test: Verification experiment 9: organic acid stress, TTC test; format: in vivo; details: cut leaves immersed in 0.4% acetic acid solution for two hours
[7] = tested on: cucumber; test: Verification experiment 10: ammonia stress, TTC test; format: in vivo; details: cut leaves immersed in 1.0% ammonia solution for three hours
[8] = tested on: cucumber; test: Verification experiment 11: ultraviolet ray stress, TTC test; format: in vivo; details: cut leaves irradiated with ultraviolet ray for 24 hours
[9] = tested on: cucumber; test: Verification experiment 12: salt stress, TTC test; format: in vivo; details: cut leaves immersed in 1.0% saline water for 24 hours
[10] = tested on: leaf lettuce; test: Verification experiment 13: hydroponics test on leaf lettuce in vinyl greenhouse in summer; format: in vivo
[11] = tested on: autumn fern; test: Verification experiment 14: high temperature stress, Pteridophyta, TTC test; format: in vivo; details: cut leaves immersed in tap water of 45° C. for 18 hours
Protocol: As a Pteridophyta, autumn fern was used, which is a representative Pteridophyta often found in, […] bright forest. Verification experiments for various stresses were conducted thereon. The experiments were conducted in the following procedures. […] Meanwhile, the leaf surfaces of the control sample were sprayed only with water. After the spraying onto the leaf surfaces, the autumn fern seedlings were cultivated at 25° C. for one day. The leaves were cut in a suitable size, and were then subjected to various stresses. Then, cell activities of the samples were determined by TTC test. The leaves that were cut in the suitable size were immersed in tap water of 45° C. for 18 hours. On such leaves, TTC test was conducted.

[12] = tested on: autumn fern; test: Verification experiment 15: organic acid stress, Pteridophyta, TTC test; format: in vivo; details: cut leaves immersed in 0.4% acetic acid solution for three hours
[13] = tested on: autumn fern; test: Verification experiment 16: ammonia stress, Pteridophyta, TTC test; format: in vivo; details: cut leaves immersed in 1.0% ammonia solution for 48 hours
[14] = tested on: racomitrium moss; test: Verification experiment 17: high temperature stress, Bryophyta, TTC test; format: in vivo; details: samples immersed in tap water of 45° C. for 18 hours
Protocol: As a Bryophyta, racomitrium moss was used, which is a Bryophyta widely used for greening a park, a rooftop, and a garden. Verification experiments for various stresses were conducted thereon. The experiments were conducted in the following procedures. […] Meanwhile, the control sample was sprayed only with water. After the spraying, the racomitrium mosses were cultivated at 25° C. for one day. Then, the samples were subjected to various stresses. Thus, cell activities of the samples were determined by TTC test. […] On such samples, TTC test was conducted.

[15] = tested on: racomitrium moss; test: Verification experiment 18: organic acid stress, Bryophyta, TTC test; format: in vivo; details: samples immersed in 0.4% acetic acid solution for three hours
[16] = tested on: racomitrium moss; test: Verification experiment 19: ammonia stress, Bryophyta, TTC test; format: in vivo; details: samples immersed in 1.0% ammonia solution for 48 hours
[17] = tested on: radish sprouts; test: Verification experiment 4: acid stress (nitric acid); details: leaf spray, then immersed in pH 2.5 acid solution for one minute
Description: By use of radish sprouts, a resistance to acid stress caused by nitric acid was investigated.
Zerumbone was sprayed onto the leaf surfaces of the cotyledons of radish sprouts seedlings three to four days after germination, and the seedlings were then cultivated for several days. Meanwhile, only water was sprayed onto the leaf surfaces of another radish sprouts seedlings, and the seedlings were then cultivated for several days. The radish sprouts seedlings thus cultivated were immersed in a pH 2.5 acid solution for one minute.

[18] = tested on: radish sprouts; test: Verification experiment 5: alkaline stress (potassium hydroxide); details: leaf spray, then immersed in pH 9.0 solution
Description: Next, by use of radish sprouts, a resistance to alkaline stress caused by potassium hydroxide was investigated.
Zerumbone was sprayed onto the leaf surfaces of the cotyledons of radish sprouts seedlings three to four days after germination, and the seedlings were then cultivated for several days. Meanwhile, only water was sprayed onto the leaf surfaces of another radish sprouts seedlings, and the seedlings were then cultivated for several days. The radish sprouts seedlings thus cultivated were immersed in a pH 9.0 acid solution.

[19] = tested on: Japanese mustard spinach; test: Verification experiment 2: high temperature and low sunshine stress, hydroponics (second time-B)
[20] = tested on: Japanese mustard spinach; test: Verification experiment 2: high temperature stress, hydroponics, plenty of sunlight (second time-A)
[21] = leaf lettuce, summer greenhouse hydroponics
[22] = leaf lettuce, summer greenhouse hydroponics, listed as zerumbone

## C/C1=C\CC(C)(C)/C=C/C(=O)/C(C)=C/CC1 [Zerumbone, zerumbone]
[1]; average weight of 10 samples
  Average: 1.760 g
[1]; average weights compared
  weights greater than those of the control samples: approximately 15%
[1]; control = 100.0
  Growth ratio (%): 115.4%
[1]; dry weight of 10 seedlings, leaf spray, nine days culture, maximum temperature 30-43 °C, plenty of sunlight
  Weight of 10 samples: 1.729 g and 1.732 g and 1.787 g and 1.792 g
[2]
  growth of cucumber seedlings (FIG. 1): grown greatly
[3]; 18 days dry stress
  average weight greater than the control samples: approximately 13%
[3]; after 18-day cultivation under dry stress
  growth compared with control (FIG. 2): grew more greatly than the control
[3]; average seedling weight after 18 days dry stress
  Average: 3.00 g
[3]; control = 100.0
  Weight comparison (%): 113.0%
[4]
  samples recovered from the dry state: three
[5]; cut leaves left two days in dark place at 0° C.
  TTC test dyeing (cell activity): dyed deeply
[5]; cut leaves left two days in dark place at −10° C.
  TTC test dyeing (cell activity): dyed slightly
[5]; remaining plants cultivated two days under fluorescent lamp at 4° C.
  TTC test dyeing of leaves (cell activity): dyed deeply except for their peripheries
[6]
  cells having an activity (TTC test): approximately half of the cells
[7]
  cells having an activity (TTC test): a part of the cells
[8]
  cells having an activity (TTC test): approximately half of the cells
[9]
  cells alive (TTC test): most of the cells
[10]; day on which harvest size reached 150 g to 180 g
  Growing speed: Harvest timing: 30th day after day after germination
[10]; [21]
  Disease resistance: Powdery mildew: Not occurred
  Disease resistance: Root rot: Not occurred
  Physiological disorder (quality): Heterophyll: Not occurred
  Physiological disorder (quality): Root spread condition: Very good
  Physiological disorder (quality): Taste: No bitterness
  Physiological disorder (quality): Tip burn (dead fringes of leaf): Not occurred
  Physiological disorder (quality): Unproductive growth: Not occurred
  occurrence of a disease (overall): occurrence of a disease was not observed
  physiological disorder (overall): no physiological disorder occurred
[10]; [22]
  Physiological disorder (quality): Root spread condition: far better than in the sanguinarine test section
  Physiological disorder (quality): Taste: no bitterness
[11]
  TTC test dyeing (cell activity): dyed slightly
[12]
  TTC test dyeing (cell activity): dyed slightly
[13]
  TTC test dyeing (cell activity): dyed slightly
[14]
  TTC test dyeing (cell activity): dyed slightly
[15]
  TTC test dyeing (cell activity): dyed slightly
[16]
  TTC test dyeing (cell activity): dyed slightly
[17]
  withering of seedlings: Slight withering was observed in some portions
[18]
  resistance to alkaline stress (withering): gives a plant resistance to both acid and alkali
[19]; Table 3 experiment, almost no sunlight
  growth better than the growth of the control samples: approximately 37%
[19]; control = 100.0, second time-B
  Growth ratio (%): 136.5%
[19]; dry weight of 10 seedlings, nine days, 30-43 °C, almost no sunlight, second time-B
  Weight of 10 samples: 2.137 g and 2.163 g
[19]; second time-B
  Average: 2.150 g
[20]; Table 2 experiment
  weights greater than those of the control samples: approximately 17%
[20]; control = 100.0, second time-A
  Growth ratio (%): 116.7%
[20]; dry weight of 10 seedlings, nine days, 30-43 °C, plenty of sunlight, second time-A
  Weight of 10 samples: 2.120 g and 2.176 g and 2.213 g and 2.298 g
[20]; second time-A
  Average: 2.202 g
